Measurements taken from paper PMC5207785, “Arginine and Lysine Transporters Are Essential for Trypanosoma brucei” (PLoS ONE, 2017).

Assays:
TbAAT5-3 [1] = target: T1, TbAAT5-3 (Trypanosoma brucei, UniProt Q57UX9); assay: competition of L-[3H]-arginine uptake in S. cerevisiae […]c; format: cell-based; conditions: 5000 µM; 50 μM L-arginine; pH 6.0
T1 construct: gene Tb08.4A8.362; full-length ORF (1377 bp incl. stop) in pDR197, untagged, expressed in S. cerevisiae 21.983c; nt 96 resolved as C (Asp)
T1 sequence (Q57UX9 1-458): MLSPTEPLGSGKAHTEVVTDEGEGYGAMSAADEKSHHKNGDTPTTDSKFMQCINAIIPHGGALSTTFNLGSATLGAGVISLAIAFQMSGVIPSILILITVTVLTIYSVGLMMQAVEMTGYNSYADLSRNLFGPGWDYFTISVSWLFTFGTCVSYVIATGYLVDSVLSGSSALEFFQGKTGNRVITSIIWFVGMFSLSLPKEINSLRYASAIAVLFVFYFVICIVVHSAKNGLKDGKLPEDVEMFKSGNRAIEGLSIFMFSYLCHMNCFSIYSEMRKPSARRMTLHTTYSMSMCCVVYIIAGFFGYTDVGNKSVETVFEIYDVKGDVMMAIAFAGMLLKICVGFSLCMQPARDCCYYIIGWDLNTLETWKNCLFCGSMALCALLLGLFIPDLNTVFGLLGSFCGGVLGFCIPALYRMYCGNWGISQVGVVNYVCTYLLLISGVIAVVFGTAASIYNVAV

TbAAT5-3 [2] = target: T1, TbAAT5-3; assay: as above; format: cell-based; conditions: 500 µM, 50 μM L-arginine, pH 6.0
TbAAT16-1 = target: T2, TbAAT16-1 (Trypanosoma brucei, UniProt Q381K2); assay: competition of L-[3H]-lysine uptake in S. cerevisiae […]Δ7AA; format: cell-based; conditions: 500 µM; 50 μM L-lysine; pH 4.5
T2 construct: gene Tb11.01.7500; full-length ORF (1389 bp incl. stop) in pDR197, untagged, expressed in S. cerevisiae 22Δ7AA; syntenic TREU927 gene Tb927.11.15840
T2 sequence (Q381K2 1-462): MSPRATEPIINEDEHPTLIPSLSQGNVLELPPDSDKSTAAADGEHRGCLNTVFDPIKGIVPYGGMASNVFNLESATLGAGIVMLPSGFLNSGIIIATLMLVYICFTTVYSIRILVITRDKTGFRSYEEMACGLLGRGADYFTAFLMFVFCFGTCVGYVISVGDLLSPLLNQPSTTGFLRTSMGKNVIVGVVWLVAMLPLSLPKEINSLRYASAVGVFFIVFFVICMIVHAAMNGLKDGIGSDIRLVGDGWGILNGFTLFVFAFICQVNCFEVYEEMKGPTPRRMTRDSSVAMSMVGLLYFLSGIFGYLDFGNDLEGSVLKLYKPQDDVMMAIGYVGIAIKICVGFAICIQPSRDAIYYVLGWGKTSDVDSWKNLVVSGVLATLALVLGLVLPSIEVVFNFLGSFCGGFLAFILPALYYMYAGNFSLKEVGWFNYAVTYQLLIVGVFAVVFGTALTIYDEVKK

[3] = substrate: NCCCC[C@H](N)C(=O)O; assay: cells, lysate or membranes; conditions: labelled compound, 30 °C, 100 mM glucose, empty-vector background subtracted, pH of this assay not given
[4] = substrate: N=C(N)NCCC[C@H](N)C(=O)O; assay: cells, lysate or membranes; format: cell-based, Trypanosoma brucei; conditions: labelled compound, 30 °C, 100 mM glucose, empty-vector background subtracted, pH of this assay not given

For `CCOC(=O)[C@@H](N)CCCNC(=N)N` [Arginine ethyl ester], the “L-[^3H]-arginine uptake rate (%) / 100x” value (TbAAT5-3 [1]) was 72.5 ± 8.7%.

For `COC(=O)[C@@H](N)CCCNC(=N)N` [Arginine methyl ester], the “L-[^3H]-arginine uptake rate (%) / 100x” value (TbAAT5-3 [1]) was 67.6 ± 10.3%.

`N=C(N)NCCC[C@H](N)C(=O)Nc1ccc2ccccc2c1` [Arginine-β-naphthylamide] was tested, and the “L-[^3H]-arginine uptake rate (%) / 10x” value (TbAAT5-3 [2]; unspecific effect of the amphipathic compound not excluded) was 69 ± 6.6%.

In the case of `N=C(N)NOCC[C@H](N)C(=O)O` [Canavanine], the “L-[^3H]-arginine uptake rate (%) / 10x” value (TbAAT5-3 [2]) is reported as 38.5 ± 4.5%.

For `NCCCC[C@H](NC(=O)OCC1c2ccccc2-c2ccccc21)C(=O)O` [Fmoc-Lysine, N-α-(9-fluorenylmethyloxycarbonyl)-L-lysine], the “L-[^3H]-lysine uptake rate (%) / 10x” value (TbAAT16-1) was 57.6 ± 6.9%.

`N=C(N)NCCCC[C@H](N)C(=O)O` [Homoarginine] was tested, and the “L-[^3H]-arginine uptake rate (%) / 10x” value (TbAAT5-3 [2]) was 25.6 ± 4.2%.

With `NCCCC[C@H](N)C(=O)O` [L-lysine] the “L-[^3H]-arginine uptake rate (%) / 100x” value (TbAAT5-3 [1]) was 56.5 ± 8.2%.

With `NCCSC[C@H](N)C(=O)O` [Thialysine, S-(2-aminoethyl)-L-cysteine] the “L-[^3H]-lysine uptake rate (%) / 10x” value (TbAAT16-1) was 35.3 ± 1.8%.

B1: TbAAT16-1 (Trypanosoma brucei brucei TREU927) (protein)
chain: T2 sequence (Q381K2 1-462)
B1 showed a Km [3] of 4.3 ± 0.5 µM.

B2: TbAAT5-3 (Trypanosoma brucei brucei TREU927) (protein)
chain: T1 sequence (Q57UX9 1-458)
notes: full-length ORF (1377 bp incl. stop) in pDR197, untagged, expressed in S. cerevisiae 21.983c; nt 96 resolved as C (Asp)
Molecule B2 has a Km [4] of 3.6 ± 0.4 µM.
